The experiment concerns the target T1, EHMT2 (Homo sapiens, UniProt Q96KQ7).
T1 construct: host or cells: MDA-MB-231
T1 sequence (Q96KQ7 1-1210): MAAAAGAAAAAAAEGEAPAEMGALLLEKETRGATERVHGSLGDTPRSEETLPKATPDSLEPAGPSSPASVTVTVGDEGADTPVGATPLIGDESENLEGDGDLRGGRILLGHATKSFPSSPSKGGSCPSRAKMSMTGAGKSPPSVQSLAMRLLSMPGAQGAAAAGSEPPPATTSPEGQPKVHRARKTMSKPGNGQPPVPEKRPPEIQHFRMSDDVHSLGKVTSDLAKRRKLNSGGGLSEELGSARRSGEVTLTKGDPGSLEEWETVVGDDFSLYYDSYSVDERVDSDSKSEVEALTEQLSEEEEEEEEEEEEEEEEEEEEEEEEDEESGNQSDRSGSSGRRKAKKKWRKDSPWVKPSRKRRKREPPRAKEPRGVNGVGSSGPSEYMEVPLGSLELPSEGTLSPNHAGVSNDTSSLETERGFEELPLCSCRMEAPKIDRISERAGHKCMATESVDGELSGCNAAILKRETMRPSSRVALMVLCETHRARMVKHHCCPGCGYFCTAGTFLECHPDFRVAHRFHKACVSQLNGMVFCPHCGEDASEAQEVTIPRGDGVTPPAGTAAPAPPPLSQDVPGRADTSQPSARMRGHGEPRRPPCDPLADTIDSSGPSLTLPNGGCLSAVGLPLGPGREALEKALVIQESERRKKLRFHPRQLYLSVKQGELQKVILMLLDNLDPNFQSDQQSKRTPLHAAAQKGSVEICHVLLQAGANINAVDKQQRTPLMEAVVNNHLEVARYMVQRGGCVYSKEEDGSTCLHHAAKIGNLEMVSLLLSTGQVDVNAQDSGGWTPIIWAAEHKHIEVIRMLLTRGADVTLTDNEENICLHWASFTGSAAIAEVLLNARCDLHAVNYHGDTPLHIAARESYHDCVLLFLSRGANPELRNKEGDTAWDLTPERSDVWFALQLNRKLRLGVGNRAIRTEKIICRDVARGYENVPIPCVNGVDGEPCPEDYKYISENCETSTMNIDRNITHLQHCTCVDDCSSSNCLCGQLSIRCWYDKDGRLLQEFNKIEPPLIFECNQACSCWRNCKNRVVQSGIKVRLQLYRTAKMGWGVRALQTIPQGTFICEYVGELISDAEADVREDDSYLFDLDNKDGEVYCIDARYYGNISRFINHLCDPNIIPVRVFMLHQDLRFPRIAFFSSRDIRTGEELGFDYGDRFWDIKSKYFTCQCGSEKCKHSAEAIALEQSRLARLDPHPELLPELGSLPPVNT
Briefly: MDA-MB-231 H3K9me2 in-cell Western assay (EHMT2 ICW). Format: cell-based. An outline of the steps:
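Steps: compound added to plate, MDA-MB-231 cells plated in RPMI with 10% FBS, incubation for 48 h at 37 °C, fixation, overnight anti-H3K9me2 staining at 4 °C, and donkey anti-mouse 800CW with DRAQ5 counterstain. IC50 values come from percent inhibition fitted with a four-parameter model.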

[1] abbreviates: Table VI, read-out: EHMT2 ICW IC50.
Setting [2] is: Table III, MDA-MB-231 H3K9me2 in-cell Western, read-out: EHMT2 ICW (IC50 μM).

From patent US20210198277A1, “AMINE-SUBSTITUTED ARYL OR HETEROARYL COMPOUNDS” (Epizyme, Inc., priority 2016, published 2021) come the findings set out here.

Like-named read-outs stand apart in the source and are kept apart here.

For the compound `COc1cc2c(C)cc(N3CCCCC3)nc2cc1OCCCN1CCCC1` [Compound 810], the IC50 (in general, the concentration at which inhibition is half-maximal) under setting [1] lay within 1 to 10 µM.
Same read-out and setting: as for `CNc1cc(C)nc(Nc2cc(OCCCN3CCCC3)c3oncc3c2)n1` [Compound 793], the figure is more than 10 µM; as for `CNc1cc(C2CCOCC2)c2cc(OC)c(OC[C@@H]3CCN(C)C3)cc2n1` [Compound 803], 1 to 10 µM.
Turning to `COc1cnc(Nc2ccnc3[nH]ccc23)cc1OCCCN1CCCC1` [Compound 335, N-(5-methoxy-4-(3-(pyrrolidin-1-yl)propoxy)pyridine-2-yl)-1H-pyrrolo[2,3-b]pyridin-4-amine], under setting [2], the 50% inhibitory concentration (IC50) lay in the range of 1 to 10 µM.
Take `COc1ccc(Nc2cccc3ncnn23)cc1OCCCN1CCCC1` [Compound 344]: the 50% inhibitory concentration (IC50) under setting [2] was more than 10 µM.
With `COc1ccc(OCCCN2CCCC2)cc1Nc1nccc(NCC2CCOCC2)n1` [Compound 351], the concentration for half-maximal inhibition (IC50) under setting [2] was more than 10 µM.
Take `COc1ccc(Nc2nc(C)c(F)c(NC(C)C)n2)cc1OCCCN1CCCC1` [Compound 337]: under setting [2], the half-maximal inhibitory concentration (IC50) lay within 1 to 10 µM.
With `CNc1ccnc(Nc2ccc(OC)c(OCCCN3CC(F)C3)c2)n1` [Compound 354], the IC50 under setting [2] lay in the range of 1 to 10 µM.
As for `CNc1cc(Nc2cc(OCCCN3CCCC3)c(OC)cn2)ncn1` [Compound 324, N^4-(5-methoxy-4-(3-(pyrrolidin-1-yl)propoxy)pyridin-2-yl)-N^6-methylpyrimidine-4,6-diamine], the IC50 under setting [2] is more than 10 µM.
Turning to `CNc1cc(C)nc(Nc2cnc(OC)c(OC[C@@H]3CCN(C4CCC4)C3)c2)n1` [Compound 798], under setting [1], the IC50 fell in the range of 0.1 to 1 µM.
Consider `COc1cnc(Nc2nccc3nccn23)cc1OC[C@@H]1CCNC1` [Compound 801], for which the IC50 under setting [1] is more than 10 µM.
With `CNc1cc(C(C)C)c2cc(OC)c(OCCCN3CCCC3)cc2n1` [Compound 817], the 50% inhibitory concentration (IC50) under setting [1] lay within 0.1 to 1 µM.
In the case of `COc1ccc(Nc2nc(C)cc(NC(C)C)n2)cc1OC[C@@H]1CCNC1` [Compound 800], under setting [1], the IC50 was 0.1 to 1 µM.
In the case of `CNc1cc(C)nc(Nc2ccc(OC)c(O[C@H]3C[C@H](N(C)C)C3)c2)n1` (single isomer, unassigned) [Compound 329, N^2-(3-((1r,3r)-3-(dimethylamino)cyclobutoxy)-4-methoxyphenyl)-N^4,6-dimethylpyrimidine-2,4-diamine], under setting [2], the half-maximal inhibitory concentration (IC50) is more than 10 µM.
As for `CNc1cc2nccn2c(Nc2cc(OCCCN3CCCC3)c(OC)cn2)n1` [Compound 611], the 50% inhibitory concentration (IC50) under setting [1] lay within 1 to 10 µM.
`COc1cc2c(C3CCN(C)CC3)cc(N3CCCCC3)nc2cc1OCCCN1CCCC1` [Compound 812]: the IC50 under setting [1] lay within 0.1 to 1 µM.
`CNc1cc(C)nc(Nc2ccc(OC)c(O[C@H]3C[C@H](CN(C)C)C3)c2)n1` [Compound 331, N^2-(3-((1r,3r)-3-((dimethylamino)methyl)cyclobutoxy)-4-methoxyphenyl)-N^4,6-dimethylpyrimidine-2,4-diamine]: under setting [2], the half-inhibitory concentration (IC50) was more than 10 µM.
For the compound `CCS(=O)(=O)N1CCC(c2cc(C)nc3cc(OCCCN4CCCC4)c(OC)cc23)CC1` [Compound 836], the 50% inhibitory concentration (IC50) under setting [1] was 1 to 10 µM.
Still for that read-out and setting: next, `COc1cc2c(C3CCN(CCC(F)(F)F)CC3)cc(C)nc2cc1OCCCN1CCCC1` [Compound 838]: 0.1 to 1 µM.
Turning to `CNC(=O)c1cc(C)nc(Nc2ccc(OC)c(OCCCN3CCCC3)c2)n1` [Compound 854], under setting [1], the IC50 is more than 10 µM.
With `CNc1cc(C)nc(Nc2cnc(OC)c(OCCCN3CCCC3)c2)n1` [Compound 332, N^2-(6-methoxy-5-(3-(pyrrolidin-1-yl)propoxy)pyridin-3-yl)-N^4,6-dimethylpyrimidine-2,4-diamine], under setting [2], the IC50 lay in the range of 0.1 to 1 µM.
As to `COc1cc2c(C3CCN([C@@H]4CCOC4)CC3)cc(C)nc2cc1OCCCN1CCCC1` [Compound 863], under setting [1], the half-inhibitory concentration (IC50) lay in the range of 0.1 to 1 µM.
For `COc1ccc(Nc2nccc(NCC3CCOCC3)n2)cc1OC1CCC2(CC1)CCN(C)C2` (centres unmarked) [Compound 259, N^2-(4-methoxy-3-((2-methyl-2-azaspiro[4.5]decan-8-yl)oxy)phenyl)-N^4-((tetrahydro-2H-pyran-4-yl)methyl)pyrimidine-2,4-diamine], under setting [2], the IC50 was more than 10 µM.
In the case of `COc1ccc(Nc2nccc(-n3nc(C)cc3C)n2)cc1OCCCN1CCCC1` [Compound 338], the IC50 under setting [2] was more than 10 µM.
On the same count and under the same terms, as for `COc1ccc(Nc2ncc3ncn(C)c3n2)cc1OCCCN1CCCC1` [Compound 343], the figure is more than 10 µM.
Regarding `COc1ccc(Nc2nccc(-c3cnn(C)c3)n2)cc1OCCCN1CCCC1` [Compound 348], the IC50 under setting [2] was more than 10 µM.
Consider `COc1cc2c(C3CCN(CC(F)(F)F)CC3)nc(C)nc2cc1OCCCN1CCCC1` [Compound 841], for which the IC50 under setting [1] is more than 10 µM.
As for `CNc1cc(Nc2cc(OCCCN3CCCC3)c(OC)cn2)nc(C)n1` [Compound 325, N^4-(5-methoxy-4-(3-(pyrrolidin-1-yl)propoxy)pyridin-2-yl)-N^6,2-dimethylpyrimidine-4,6-diamine], the IC50 under setting [2] was 1 to 10 µM.
On the same count and under the same terms, as for `COc1ccc(Nc2nccc(NCC3CCOCC3)n2)cc1NCCCN1CCCC1` [Compound 350], the figure is 1 to 10 µM.
As for `CNc1cc(C)c2cc(OC)c(C#CCN3CCCC3)cc2n1` [Compound 859], the IC50 under setting [1] was 0.1 to 1 µM.
Take `COc1cc2c(C)nc(N3CCCCC3)nc2cc1OCCCN1CCCC1` [Compound 811]: the IC50 under setting [1] is more than 10 µM.
For the compound `CNc1cc(C2CCOCC2)c2cc(OC)c(OC[C@@H]3CCNC3)cc2n1` [Compound 802], the IC50 under setting [1] fell in the range of 1 to 10 µM.
On to `COc1ccc(Nc2ccc3ncc(C)n3n2)cc1OCCCN1CCCC1` [Compound 347], for which the IC50 under setting [2] is more than 10 µM.
In the case of `CNc1nc(Nc2ccc(OC)c(OCCCN3CCCC3)c2)nc2c1CCC2` [Compound 328, N^2-(4-methoxy-3-(3-(pyrrolidin-1-yl)propoxy)phenyl)-N^4-methyl-6,7-dihydro-5H-cyclopenta[d]pyrimidine-2,4-diamine], the IC50 under setting [2] was in the range of 1 to 10 µM.
`COc1cc(N(C)C2CCOCC2)ncc1OCC1CCNC1` (centres unmarked) [Compound 808]: under setting [1], the IC50 is more than 10 µM.
Still for that read-out and setting: next, `CNc1cc(CC2CCOCC2)c2cc(OC)c(OCCCN3CCCC3)cc2n1` [Compound 823]: 0.1 to 1 µM.
With `COc1ccc(Nc2cccc3cn(C)nc23)cc1OCCCN1CCCC1` [Compound 346], under setting [2], the half-inhibitory concentration (IC50) was more than 10 µM.
Turning to `COc1ccc(Nc2ccc3ncn(C)c3n2)cc1OCCCN1CCCC1` [Compound 342], the IC50 under setting [2] is more than 10 µM.
With `COc1ccc(Nc2cc3c(cn2)ncn3C)cc1OCCCN1CCCC1` [Compound 258, N-(4-methoxy-3-(3-(pyrrolidin-1-yl)propoxy)phenyl)-1-methyl-1H-imidazo[4,5-c]pyridin-6-amine], the IC50 under setting [2] is more than 10 µM.
With `CNc1cc(C)nc(Nc2ccc(OC)c(C#CC3CCN(C)C3)c2)n1` (centres unmarked) [Compound 847], under setting [1], the IC50 was in the range of 1 to 10 µM.
With `CNc1cc(C)nc(Nc2ccc(OC)c(C#CC3CCCN3C)c2)n1` (centres unmarked) [Compound 848], under setting [1], the half-inhibitory concentration (IC50) lay in the range of 0.1 to 1 µM.
As for `CNc1cc(C2CCN(CCC(F)(F)F)CC2)c2cc(OC)c(OCCCN3CCCC3)cc2n1` [Compound 832], the IC50 under setting [1] was less than 0.1 µM.
Consider `COc1ccc(Nc2nccc(NCC3CCOCC3)n2)cc1OC1CCC2(CC1)CN(C)C2` [Compound 260, N^2-(4-methoxy-3-((2-methyl-2-azaspiro[3.5]nonan-7-yl)oxy)phenyl)-N^4-((tetrahydro-2H-pyran-4-yl)methyl)pyrimidine-2,4-diamine], for which the half-inhibitory concentration (IC50) under setting [2] is more than 10 µM.
As to `COc1cc2c(C3CCOCC3)cc(N3CCCCC3)nc2cc1OCCCN1CCCC1` [Compound 824], the IC50 under setting [1] is 1 to 10 µM.
For `CNc1cc(Nc2cc(OCCCN3CCCC3)c(OC)cn2)cnn1` [Compound 323, N^5-(5-methoxy-4-(3-(pyrrolidin-1-yl)propoxy)pyridin-2-yl)-N^3-methylpyridazine-3,5-diamine], under setting [2], the half-inhibitory concentration (IC50) is more than 10 µM.
Take `COc1ccc(Nc2ccc3nn(C)cc3c2)cc1OCCCN1CCCC1` [Compound 345]: under setting [2], the IC50 was more than 10 µM.
For `COc1cc2c(C3CCOCC3)cc(=O)[nH]c2cc1OCCCN1CCCC1` [Compound 822], the IC50 under setting [1] was more than 10 µM.
Still for that read-out and setting: next, `CNc1cc(C)nc(Nc2ccc(OC)c(CN[C@@H]3CCNC3)c2)c1` [Compound 814]: more than 10 µM; `COc1ccc(Nc2nn(C)c3cnccc23)cc1OCCCN1CCCC1` [Compound 794]: more than 10 µM.
For the compound `CNc1cc(C2CCN(CC(F)(F)F)CC2)c2cc(OC)c(OCCCN3CCCC3)cc2n1` [Compound 833], under setting [1], the half-maximal inhibitory concentration (IC50) lay in the range of 0.1 to 1 µM.
